Experimental data from patent US11129801B2 (SigmaThera SAS, priority 2016, dated 2021).

How the values were obtained:
[1] = system: sigma-1 receptor / BiP complex; assay: Dissociation of BiP from sigma-1 receptor in CHO cells; assay type: cell-based; conditions: 1 μM and 10 μM, 30 min
Method: CHO cells were grown in a 6-well plates and treated with the compounds in culture medium at 37° C. for 30 min at 1 μM and 10 μM final concentration. The reaction was stopped by medium removal and adding 3 mL PBS at 37° C. CHO cells were harvested and suspended in 50 mM HEPES (pH7.4) followed by cross-linking with 50 μg/ml of dithio (bis) succinimidyl propionate (Thermo Fisher Scientific, Waltham, Mass.) for 30 min at 4° C. The reaction was stopped by adding Tris-HCl (pH 8.8, final 50 mM). Fifteen minutes after incubation on ice, cells were lysed with RIPA buffer [50 mM Tris (pH7.4), 150 mM NaCl, 1% Triton X-100, 0.3% sodium deoxycholate, 0.1% SDS, protease inhibitor cocktail (Roche Complete)]. After centrifugation at 12,000 g, 1 min, the supernatant was incubated overnight at 4° C. with Sig-1R antibody (Abcam). The cell lysate was incubated with Sepharose protein-A (Invitrogen) for 90 min. After centrifugation at 12,000 g, 1 min, the supernatant was discarded and the pellet was washed in 0.5 mL RIPA buffer. After a second centrifugation at 12,000 g, 20 min, the supernatant was discarded and the pellet was washed in 0.5 mL 2× Sample buffer/bMCE buffer. Following a third centrifugation at 12,000 g, 1 min, the supernatant was analysed by ELISA assay, according to the manufacturer's protocol (USCNK #SEC343Mu).

Bax/Bcl-2 = assay: ELISA of cortical Bax/Bcl-2 ratio, Aβ25-35 mouse model; assay type: in vivo; conditions: Experiment 2, post-treatment, 1 mg/kg
Method: (§1) In Experiment 2, twelve mice per experimental group were administered Sc.Aβ or Aβ25-35-amyloid peptide on day 0 by i.c.v. injection. […] Animals were tested at day 7 and later.
(§2) For each of Experiments 1-4, on day 7, all animals were tested for the spontaneous alternation performance in the Y-maze test, an index of spatial working memory. On day 8 and 9, the contextual long-term memory of the animals was assessed using the step-through type passive avoidance procedure. On day 9, immediately after the retention session, animals were sacrificed by decapitation and the hippocampus and cortex dissected out. Lipid peroxidation was analyzed in the hippocampus, whereas neuroinflammation, apoptosis, amyloid burden and hyperphosphorylation of tau protein were analyzed in cortex.
Enzyme-linked immunosorbant assay (ELISA) assays: Contents in GFAP, Caspase 12, Amyloid-beta 1-40, Amyloid-beta 1-42, Total Tau, and pTau on Ser199 were analyzed by using commercial ELISA assay kit. • GFAP: Supplier: USCNK #Ref: SEA068Mu • Total Tau: Supplier: Novex #Ref: KMB7011 • pTau (S199): Supplier: Novex #Ref: KMB7041 • Amyloid beta 1-40: Supplier: Novex #Ref: KMB3481 • Amyloid beta 1-42: Supplier: Novex #Ref: KMB3441 • Caspase-12: Supplier: LSBio #Ref: LS-F11023 • BAX: Supplier: Euromedex#Ref: SEB343Mu • BCL2: Supplier: Euromedex #Ref: SEA778Mu […]

[2] = system: Aβ25-35 mouse model of Alzheimer's disease; assay: Aβ25-35 mouse model, overall neuroprotection (summary statements); assay type: in vivo
Method: (§3) The compound efficacy was evaluated 7 days after the peptide administration on the attenuation of the Aβ25-35-induced learning deficits (spatial working memory using the spontaneous alternation in the Y-maze test, and contextual long-term memory using the passive avoidance test).
(§4) The mice were tested 7 days post injection or at the indicated time points.
as §1
(§5) The synergy/additivity/antagonism was evaluated by calculating the combination index. […] Animals were then tested at day 7 and later.
(§6) Animals were tested at day 7 and later.
as §2

[3] = system: Aβ25-35 mouse model of Alzheimer's disease; assay: Spontaneous alternation in the Y-maze, Aβ25-35 mouse model; assay type: in vivo
Method: as §3, §4, §1, §5, §6, §2
The homogeneous oligomeric preparation of Aβ25-35 peptide was performed according to the AMYLGEN's own procedure. Each mouse was anesthetized with isoflurane 2.5% and injected i.c.v. with Aβ25-35 peptide (9 nmol/mouse) or Sc.Aβ peptide (9 nmol/mouse), in a final volume of 3 μl/mouse, according to the previously described method (Maurice T, et al. (1996). Brain Res. 706(2): 181-193, Maurice T, et al. (1998) Neuroscience 83(2): 413-428, Meunier J, et al. (2006) British J. Pharmacol. 149(8): 998-1012, Villard V, et al. (2009) Neuropsychopharmacology 34(6): 1552-1566, Villard V, et al. (2011) J. Pharmacol. Sci. 115(3): 279-292).
Animals: Male Swiss mice, 6 weeks old and weighing 30-35 g, from JANVIER (Saint Berthevin, France), were kept for housing and experiments took place within the animal facility building of the University of Montpellier 2 (CECEMA, Office of Veterinary Services agreement #B-34-172-23). Animals were housed in groups with access to food and water ad libitum, except during behavioral experiments. They were kept in a temperature and humidity controlled animal facility on a 12 h/12 h light/dark cycle (lights off at 07:00 pm). Mice were numbered by marking their tail using permanent markers. All animal procedures were conducted in strict adherence to the European Union directive of Sep. 22, 2010 (2010/63/UE). Diagnostic summary reports of JANVIER were annexed to the study report.
Spontaneous alternation performance: Immediate working memory performance was assessed by recording spontaneous alternation behavior during a single session in a Y-maze as described previously (Itoh J, et al. (1993) Eur J Pharmacol 236(3): 341-345; Hiramatsu M and Inoue K (1999) Br J Pharmacol 127(3): 655-660). The Y-maze is made of grey polyvinylchloride. Each arm of the Y-maze was 40 cm long, 3 cm wide, and 13 cm high at the bottom, 10 cm wide at the top, and converging at an equal angle. Each mouse was placed at the end of one arm and allowed to move freely through the maze during an 8 min session. The series of arm entries, including possible returns into the same arm, was checked visually. An alternation was defined as entries into all three arms on consecutive occasions. The number of maximum alternations is therefore the total number of arm entries minus two and the percentage of alternation was calculated as (actual alternations/maximum alternations)×100. Parameters included the percentage of alternation (memory index) and total number of arm entries (exploration index).

CCC(C/C=C/c1ccccc1)(c1ccccc1)N(C)CC1CC1 (single isomer, unassigned; (+)) [igmesine, (+)-(E)-N-(cyclopropylmethyl)-N-methyl-3,6-diphenylhex-5-en-3-amine]
dissociation of BiP from sigma-1 receptor [1]: produced the dissociation of BiP from sigma-1 receptor in a dose-dependent manner
cortical Bax/Bcl-2 ratio elevation (Bax/Bcl-2): fully normalized
dose in combination versus dose active on depression (fold lower) ([2]; combined with donepezil, ibuprofen, selegiline or atorvastatin): 300 fold
lowest dose with effect, preventive treatment ([2]; given 20 min before Aβ25-35): 0.3 mg/kg
lowest dose with effect, curative treatment ([2]; starting 1 day after induction of the toxicity): 1 mg/kg
synergistic effect in combination ([2]; with donepezil, ibuprofen, selegiline or atorvastatin, not with memantine): clear synergistic effect
prevention of Aβ25-35-induced spontaneous alternation deficits ([3]; Experiment 1, i.p. 20 min before Aβ25-35, 0.1, 0.3, 1 mg/kg): dose-dependently prevented
prevention of Aβ25-35-induced spontaneous alternation deficits ([3]; Experiment 2, post-treatment i.p. day 1 to day 6): prevented the Aβ25-35-induced deficits at the highest doses tested
highest sub-active dose, spontaneous alternation ([3]; Experiment 3, i.p.): 0.1 mg/kg
